The subject of assay [1] is silenced telomeric URA3 gene. Put plainly: URA3 telomeric silencing assay (cell-based screen for Sir2p inhibitors). On the set-up: species or system S. cerevisiae. Here is the method: In order to find inhibitors of the deacetylase activity of Sir2p, screening was carried out to identify compounds that perturbed silencing at each of the loci at which Sir2p is known to act in S. cerevisiae: telomeres, HML, HMR, and the rDNA. The cell-based positive selection screen was designed so that inhibition of Sir2p activity permitted normal cell growth in order to avoid identifying cytotoxic compounds. Briefly, a yeast strain containing a marker gene, such as a nutritional marker, in close proximity to a telomeres in S. cerevisiae such that it is repressed by telomeric chromatin, is exposed to a test compound or set of test compounds dissolved in DMSO and cultured under suitable conditions and in media supplemented to permit growth only under conditions in which the marker gene is expressed. After a suitable interval, the optical density of the culture is measured. An increase in optical density corresponds to growth indicating a perturbation of silencing of the marker gene. All strains in this and other examples herein can be grown in synthetic complete media (SC) or selective synthetic drop-out media containing 2% glucose.
Initial screening for compounds that effect silencing was carried out using a URA3 assay. […] Eleven compounds identified in this primary screen were analyzed further to determine whether silencing at the HML and HMR loci was also affected.

In assay [2] the test system is TRP1 gene integrated at the silent HMR locus. Put plainly: TRP1 reporter at silent HMR locus growth assay. It is filed as cell-based, S. cerevisiae. The following applies: tryptophan-deficient media, 36-48 h. Here is the method: A secondary screening of the eleven identified compounds was carried out using a TRP1 gene which utilized a yeast strain with a TRP1 gene integrated at the silent HMR locus cannot grow in media lacking tryptophan (Buck, S. W. & Shore, D. (1995) Genes Dev. 9, 370-84). Using the method essentially described above, wells in a 96-well plate were inoculated with 150 μL of yeast culture (a yeast strain with a TRP1 gene integrated at the silent HMR locus), containing 1×10^5 cell/ml in tryptophan-deficient media. The eleven compounds dissolved in DMSO were added to the cells and the cultures are incubated for 36-48 h and growth in individual wells is tested by optical density (OD660) measurements and visual inspection.

A further assay relates to HMLα locus in MATa cells. In words: Pheromone response assay, silencing at the HMLα locus in MATa cells. Type of assay: cell-based, S. cerevisiae. The source says: When haploid MATa cells are exposed to the mating pheromone […], they arrest in G1 phase of the cell cycle. Loss of silencing at the HMLα locus in MATa cells results in expression of a mating type genes (Marsh, L., et al. (1991) Annu. Rev. Cell Biol. 7, 699-728). The coexpression of α and a genes creates a pseudo-diploid state: cells are immune to […] and unable to mate.

Another assay deals with rDNA locus. In words: Recombination at the rDNA locus (loss of ADE2 integrated into the rDNA array). Type of assay: cell-based, S. cerevisiae. Here is the method:
Silencing within the rDNA locus is manifested in two ways. It can weakly repress expression of an inserted reporter gene (Smith, J. S. & Boeke, J. D. (1997) Genes Dev. 11, 241-54), and it reduces recombination between tandem copies of the ribosomal RNA genes (Gottlieb, S. & Esposito, R. E. (1989) Cell 56, 771-6). Recombination was analyzed by measuring the loss rate of an ADE2 gene integrated into the rDNA array essentially as described by Kaeberlein, M., et al. (1999 Genes Dev. 13, 2570-80). […] After six hours, the cultures were plated onto rich medium and the loss of expression of the ADE2 gene was measured and scored by the development of sectored red colonies. […] Treatment with SI increased recombination rate at the rDNA locus seven-fold, which is similar to rates observed in a sir2 mutant (FIG. 1D).

The subject of assay [3] is wild type BY4741 cells vs sir2, hst1, hst2, hst3, hst4 deletion mutants. Put plainly: Whole genome DNA microarray transcriptional profiling. Type of assay: cell-based, S. cerevisiae. The source says: In addition to SIR2, the S. cerevisiae genome encodes four SIR2 homologues: HST1-4 (Homologue of Sir Two) (Brachmann, C. B., et al. (1995) Genes Dev. 9, 2888-902). Hst2p is located in the cytoplasm and is responsible for virtually all the NAD^+-dependent deacetylase activity detected in a cellular lysate (Smith, J. S., et al., (2000) Proc. Natl. Acad. Sci. USA 97, 6658-63). Its relevant biological substrate is unknown. Hst1p is required for transcriptional repression of meiotic genes (Xie, J., et al. (1999) EMBO J. 18, 6448-54), whereas little is known about the cellular function of Hst3p or Hst4p.
Strains for the DNA array experiments for the whole genome analysis were obtained from Research Genetics (wild type BY4741: MATa his3, leu2, met15, […] or isogenic sir2, hst1, hst2, hst3 and hst4 deletion mutants). Several colonies from fresh cultures were inoculated into synthetic complete medium with 2% glucose, grown overnight at 30° C., diluted to 0.5−1×10^6 cell/ml and grown for an additional 6-9 hours until reaching a density of 0.5−1×10^7 cells/ml. […] Total RNA was extracted using the hot acid phenol method. Microarray construction and hybridization protocols were modified from those described elsewhere (DeRisi, J. L. et al. (1997) Science 278, 680-6). Briefly, yeast microarrays were constructed employing a set of ˜6200 or specific PCR primer pairs (Research Genetics, Huntsville, Ala.), which were used to amplify each open reading frame (orf) of the yeast genome. Individual PCR products were verified as unique via gel electrophoresis and purified using ARRAYIT 96-well PCR purification kits (TeleChem International, Sunnyvale, Calif.). Purified PCR products were mechanically “spotted” in 3×SSC (450 mM sodium chloride and 45 mM sodium citrate, pH 7.0) onto poly-lysine coated microscope slides using an OMNIGRID high-precision robotic gridder (GeneMachines, San Carlo, Calif.). […]

In assay [4] the test system is mutant SIR2 (GAL-SIR2-Y298N or GAL-SIR2-H286Q). Put plainly: HDA assay with drug resistant mutant Sir2p. Type of assay: biochemical, S. cerevisiae. The following applies: in vitro, equivalent amounts of protein.
Protocol: Briefly, histone H4 was chemically acetylated using the HDAC Assay Kit (Upstate Biotechnology). […] For the histone deacetylase assays, 50 μg of yeast whole-cell protein extract was incubated with [^3H] acetylated histone H4-peptide (40,000 cpm) with or without 500 μM NAD^+ in a 100 μl reaction. The buffer contained 150 mM NaCl, 25 mM sodium phosphate pH 7.4 and 1 mM DTT. Reactions were incubated at 30° C. for 16 hours and were stopped by the addition of 25 μl of 1 N HCl and 0.15 N acetic acid. Released [^3H] acetate was extracted with 400 μl of ethyl acetate.
To obtain further insight into the molecular mechanism by which S I inhibited deacetylase activity of Sir2p, mutant forms of Sir2p were generated that were resistant to the compound. […] Plasmid DNA was recovered from the individual colonies and was retransformed into the test strain to assure that drug resistance was conferred by SIR2-containing plasmid.
The test system of assay [5] is silent HML locus in G1-arrested MATa cells. Put plainly: Maintenance of silent state in G1-arrested MATa cells. Type of assay: cell-based, S. cerevisiae. The source says: This was presumably due to loss of mating competence, a consequence of expression of the α2 gene from the “silent” HML locus. To test this idea more directly, a MATa strain with a single G1 cyclin gene (CLN3), which is under control of a galactose-inducible promoter (Cross, F. R. (1990) Mol. Cell Biol. 10, 6482-90), was arrested in G1 by replacing galactose with glucose in the media.

A further assay has as its system Rat1a cells. Put plainly: Sensitization to etoposide, 3H-thymidine incorporation viability. Type of assay: cell-based, rat. Particulars: S1 25, 50 and 100 μM with etoposide, 72 hours. Here is the method: (§1) To test whether S1 could sensitize cells to DNA damage, mammalian cells were exposed to etoposide, a DNA damaging agent, in the presence and absence of S1. […] Viability of cells was assessed with 3H-thymidine incorporation.
For orientation: Uptake of a labelled nucleoside into DNA is a usual measure of proliferation.

The test system of assay [6] is primary human fibroblasts (HFF). The assay is described as above. It is filed as cell-based. Particulars: S1 25, 50 and 100 μM with etoposide, 72 hours. Here is the method: as §1
Another assay relates to mammalian cells. Put plainly: Toxicity assays using S1 and a variety of DNA damaging agents. Type of assay: cell-based. The source says:
(1996) Science 272, 408-11)). In addition to histones, many other proteins are regulated by acetylation, including pRb, E2F and p53 proteins (Chan, H. M., et al. (2001) Nat. Cell Biol. 3,667-74; Martinez-Balbas, M. A., et al. (2000) EMBO J. 19,662-71; and Luo, J., et al. (2000) Nature 408, 377-81). Two recent reports (Vaziri, H., et al. (2001) Cell 107, 149-159 and Luo, J., et al. (2001) Cell 107, 137-148) implicate deacetylation of p53, by Sir2, in down-regulation of transcriptional and proapoptotic activities of p53 in response to DNA damage. […] P. (2001) Oncogene 20, 2988-90 and Tycko, […]. Clin. Invest 105, 245-6).

[7] abbreviates: 50 μg/ml cycloheximide 40 minutes prior to S1.

The values below come from patent US7514406B2, “Methods for inhibiting deacetylase activity” (Fred Hutchinson Cancer Research Center, priority 2001, dated 2009).

Consider `O=C1CCc2c(ccc3ccccc23)O1` [S1, 1,2-dihydro-3H-naphtho[2,1-b]pyran-3-one], for which the “disruption of silencing in drug resistant SIR2 mutants vs wild type strains” value in assay [1] (SIR2-H286Q, SIR2-L287Q, SIR2-Y298N) is “required higher concentrations”. Moreover, the “silencing at telomeric loci” value in assay [1] (URA3 telomeric marker, uracil-deficient media, 0.5, 5 and 50 μM, 36-48 h) is “disrupted silencing”. The “growth in media lacking tryptophan (loss of silencing at HMR)” value in assay [2] is given as “enabled cells to grow in media lacking tryptophan”. Also, the “silencing at HML” value with HMLα locus in MATa cells is given as “disrupted silencing at HML”. In addition, in the assay with HMLα locus in MATa cells (in the presence of S1), the “mating of MATa cells” value is reported as “defective for mating” and the “responsiveness of MATa cells to α factor” value is listed as “lost responsiveness to α factor”. Moreover, in the assay on rDNA locus, the “silencing of a reporter gene within the rDNA locus” value is given as “disrupted silencing”. For the same compound, the “increase of recombination rate at the rDNA locus” value in the assay on rDNA locus (15 μM, six hours, similar to rates in a sir2 mutant) is “seven-fold”. For the same compound, the “effect on rDNA recombination in sir2 cells” value in the assay on rDNA locus (sir2 cells treated with the compound) was “no effect”. The “overlap with HST2, HST3 or HST4 regulated genes” value in assay [3] is recorded as “no overlap”. For the same compound, in [3] (setting [7]), the “transcriptional down-regulation by S1 in the absence of new protein synthesis” value was “virtually all transcriptional down-regulation was abolished” and the “upregulation of genes by S1 with cycloheximide” value is listed as “did not affect”. Also, the “inhibitory effect on histone deacetylase activity of mutant proteins vs wild type Sir2p” value in [4] is “increased resistance”. Moreover, in assay [5] (CLN3 galactose-inducible strain arrested by glucose, DMSO control), the “α2 mRNA expression from HML in G1-arrested cells” value is “detected only in the S1-treated cells”. The “cell cycle progression of α factor G1-arrested MATa cells” value in assay [5] (untreated cells remained arrested in G1) is “progressed through the cell cycle”. Besides, the sensitization to etoposide result with Rat1a cells is “dose-dependent sensitization”. For the same compound, the sensitization to etoposide result in [6] is listed as “dose-dependent sensitization”. Further, the “sensitization to DNA damaging agents” value with mammalian cells is listed as “sensitizes mammalian cells”.
